Drawing on patent US12281102B2, “Inhibitors of APOL1 and methods of using same” (Vertex Pharmaceuticals Incorporated, priority 2020, dated 2025), this text covers IC50 for 54 molecules.

Bounds are passed on as bounds.

The target of one assay is T1, G1 APOL1 (Homo sapiens, UniProt O14791, I384M/S342G).
T1 construct: expressed in transfected cells
T1 sequence (O14791 28-398 S342G/I384M): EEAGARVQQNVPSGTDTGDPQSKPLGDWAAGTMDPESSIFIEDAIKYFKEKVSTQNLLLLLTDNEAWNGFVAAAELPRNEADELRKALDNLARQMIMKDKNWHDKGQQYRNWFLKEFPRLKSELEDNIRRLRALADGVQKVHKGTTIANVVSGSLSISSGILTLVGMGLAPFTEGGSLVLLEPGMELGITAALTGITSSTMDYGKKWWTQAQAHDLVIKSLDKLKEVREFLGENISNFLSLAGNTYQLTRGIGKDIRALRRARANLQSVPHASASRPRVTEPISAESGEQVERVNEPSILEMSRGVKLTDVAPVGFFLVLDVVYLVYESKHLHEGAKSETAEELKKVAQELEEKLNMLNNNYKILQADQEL
The assay is described as follows: Acute APOL1 Thallium Assay with inducible stable clones of HEK 293 cells. The format is cell-based. Conditions: HEK 293 T-Rex inducible stable clone expressing G1 APOL1; read-out: Thallium Assay (IC50). Put shortly:
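APOL1 pore function was measured as thallium influx, detected by a Tl+-sensitive fluorescent dye loaded as AM ester, on a FLIPR Tetra after Tl+ addition. Cells were HEK T-Rex G1 APOL1 clone DC3.25, 26,000 per well, induced with tetracycline at plating in Opti-MEM assay medium.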
Turning to `O=C1CC(C(=O)NC[C@H]2C[C@@H](c3c(-c4ccc(F)cc4)[nH]c4c(F)cc(F)cc43)C2)CC(=O)N1` [Compound 291], the IC50 (commonly the concentration that inhibits the measured activity by half) was over 1000 nM. Same read-out and setting: next, `O=C(NC[C@H]1C[C@H](c2c(-c3ccc(F)cc3)[nH]c3c(F)cc(F)cc32)C1)c1ccn[nH]1` [Compound 292]: over 1000 nM; `O=C(CCN1CCCCC1)NC[C@H]1C[C@@H](c2c(-c3ccc(F)cc3)[nH]c3c(F)cc(F)cc32)C1` [Compound 293]: over 1000 nM; `O=C1CC(C(=O)NC[C@H]2C[C@@H](c3c(-c4ccc(F)cc4)[nH]c4c(F)cc(F)cc43)C2)CN1` (stereo partly drawn) [Compound 294]: over 1000 nM. The same measure, in the same setting: then `C[C@@H](NC(=O)OC(C)(C)C)C(=O)NC[C@H]1C[C@H](c2c(-c3ccc(F)cc3)[nH]c3c(F)cc(F)cc32)C1` [Compound 295], with over 1000 nM. On the same count and under the same terms, then `O=C(CCN1CCCC1)NC[C@H]1C[C@@H](c2c(-c3ccc(F)cc3)[nH]c3c(F)cc(F)cc32)C1` [Compound 296], with over 1000 nM; and `O=C(NC[C@H]1C[C@H](c2c(-c3ccc(F)cc3)[nH]c3c(F)cc(F)cc32)C1)c1cccnn1` [Compound 297], with over 1000 nM. Consider `O=C(NC[C@H]1C[C@H](c2c(-c3ccc(F)cc3)[nH]c3c(F)cc(F)cc32)C1)c1cn[nH]c1` [Compound 298], for which the IC50 is over 1000 nM. As to `CC(C(=O)NC[C@H]1C[C@@H](c2c(-c3ccc(F)cc3)[nH]c3c(F)cc(F)cc32)C1)n1ccnc1` (stereo partly drawn) [Compound 299], the IC50 is over 1000 nM.

Turning to `O=C(CC(=O)N1CCOCC1)NC[C@H]1C[C@@H](c2c(-c3ccc(F)cc3)[nH]c3c(F)cc(F)cc32)C1` [Compound 300], the IC50 is over 1000 nM. For the molecule `CC(C)C(O)C(=O)NC[C@H]1C[C@@H](c2c(-c3ccc(F)cc3)[nH]c3c(F)cc(F)cc32)C1` (stereo partly drawn) [Compound 301], the IC50 was over 1000 nM. Same read-out and setting: next, `O=C(NC[C@H]1C[C@@H](c2c(-c3ccc(F)cc3)[nH]c3c(F)cc(F)cc32)C1)c1nc[nH]n1` [Compound 302]: over 1000 nM; `O=C1NCCC1C(=O)NC[C@H]1C[C@@H](c2c(-c3ccc(F)cc3)[nH]c3c(F)cc(F)cc32)C1` (stereo partly drawn) [Compound 303]: over 1000 nM; `O=C(NC[C@H]1C[C@H](c2c(-c3ccc(F)cc3)[nH]c3c(F)cc(F)cc32)C1)c1ccc(=O)[nH]c1` [Compound 304]: over 1000 nM.

For `CN(CC(=O)NC[C@H]1C[C@@H](c2c(-c3ccc(F)cc3)[nH]c3c(F)cc(F)cc32)C1)S(C)(=O)=O` [Compound 305], the half-maximal inhibitory concentration (IC50) is over 1000 nM. Still for that read-out and setting: next, `O=C(Cn1cnnc1)NC[C@H]1C[C@@H](c2c(-c3ccc(F)cc3)[nH]c3c(F)cc(F)cc32)C1` [Compound 307]: over 1000 nM; `CS(=O)(=O)CCCC(=O)NC[C@H]1C[C@@H](c2c(-c3ccc(F)cc3)[nH]c3c(F)cc(F)cc32)C1` [Compound 308]: over 1000 nM; `O=C(NC[C@H]1C[C@@H](c2c(-c3ccc(F)cc3)[nH]c3c(F)cc(F)cc32)C1)c1cnn[nH]1` [Compound 309]: over 1000 nM. The same measure, in the same setting: next, `CC(C)(C)OC(=O)NC1(C(=O)NC[C@H]2C[C@H](c3c(-c4ccc(F)cc4)[nH]c4c(F)cc(F)cc43)C2)COC1` [Compound 311]: over 1000 nM; `O=C(NC[C@H]1C[C@H](c2c(-c3ccc(F)cc3)[nH]c3c(F)cc(F)cc32)C1)c1ccn[nH]c1=O` [Compound 312]: over 1000 nM. As for `O=C(CC1CC(F)(F)C1)NC[C@H]1C[C@@H](c2c(-c3ccc(F)cc3)[nH]c3c(F)cc(F)cc32)C1` [Compound 313], the IC50 is over 1000 nM. On to `O=C(NC[C@H]1C[C@H](c2c(-c3ccc(F)cc3)[nH]c3c(F)cc(F)cc32)C1)c1ccc[nH]1` [Compound 314], for which the IC50 is over 1000 nM. In the case of `CN1CCCC(CC(=O)NC[C@H]2C[C@@H](c3c(-c4ccc(F)cc4)[nH]c4c(F)cc(F)cc43)C2)C1` (stereo partly drawn) [Compound 315], the IC50 is over 1000 nM.

Take `O=C(CC1(O)CCCCC1)NC[C@H]1C[C@@H](c2c(-c3ccc(F)cc3)[nH]c3c(F)cc(F)cc32)C1` [Compound 316]: the IC50 is over 1000 nM. Consider `O=C(NC[C@H]1C[C@@H](c2c(-c3ccc(F)cc3)[nH]c3c(F)cc(F)cc32)C1)c1cn[nH]c1` [Compound 317], for which the IC50 was over 1000 nM. With `O=C(CC1COC1)NC[C@H]1C[C@@H](c2c(-c3ccc(F)cc3)[nH]c3c(F)cc(F)cc32)C1` [Compound 319], the IC50 was over 1000 nM. The same measure, in the same setting: next, `CN(C)CC(=O)NC[C@H]1C[C@@H](c2c(-c3ccc(F)cc3)[nH]c3c(F)cc(F)cc32)C1` [Compound 320]: over 1000 nM. The same measure, in the same setting: next, `Cc1nccn1CC(=O)NC[C@H]1C[C@@H](c2c(-c3ccc(F)cc3)[nH]c3c(F)cc(F)cc32)C1` [Compound 321]: over 1000 nM. Same read-out and setting: next, `Cn1nccc1CC(=O)NC[C@H]1C[C@@H](c2c(-c3ccc(F)cc3)[nH]c3c(F)cc(F)cc32)C1` [Compound 322]: over 1000 nM; `O=C(CC1CCCOC1)NC[C@H]1C[C@@H](c2c(-c3ccc(F)cc3)[nH]c3c(F)cc(F)cc32)C1` (stereo partly drawn) [Compound 323]: over 1000 nM; `COC1(CC(=O)NC[C@H]2C[C@@H](c3c(-c4ccc(F)cc4)[nH]c4c(F)cc(F)cc43)C2)CCC1` [Compound 324]: over 1000 nM. Turning to `O=C(CC1CCOCC1)NC[C@H]1C[C@@H](c2c(-c3ccc(F)cc3)[nH]c3c(F)cc(F)cc32)C1` [Compound 325], the IC50 was over 1000 nM. Still for that read-out and setting: then `O=C(CCN1CCCC1=O)NC[C@H]1C[C@@H](c2c(-c3ccc(F)cc3)[nH]c3c(F)cc(F)cc32)C1` [Compound 326], with over 1000 nM; and `O=C(CN1CCCC1)NC[C@H]1C[C@@H](c2c(-c3ccc(F)cc3)[nH]c3c(F)cc(F)cc32)C1` [Compound 327], with over 1000 nM; and `O=C1CCC(C(=O)NC[C@H]2C[C@@H](c3c(-c4ccc(F)cc4)[nH]c4c(F)cc(F)cc43)C2)CN1` (stereo partly drawn) [Compound 328], with over 1000 nM. The same measure, in the same setting: then `Nc1nonc1C(=O)NC[C@H]1C[C@H](c2c(-c3ccc(F)cc3)[nH]c3c(F)cc(F)cc32)C1` [Compound 329], with over 1000 nM. Still for that read-out and setting: then `O=C(NC[C@H]1C[C@H](c2c(-c3ccc(F)cc3)[nH]c3c(F)cc(F)cc32)C1)c1ccc[nH]c1=O` [Compound 330], with over 1000 nM; and `CC[C@@H](NC(=O)OC(C)(C)C)C(=O)NC[C@H]1C[C@H](c2c(-c3ccc(F)cc3)[nH]c3c(F)cc(F)cc32)C1` [Compound 331], with over 1000 nM. `O=C1NCC[C@H]1NS(=O)(=O)NC[C@H]1C[C@H](c2c(-c3ccc(F)cc3)[nH]c3c(F)cc(F)cc32)C1` [Compound 332, (3R)-3-[[3-[5,7-difluoro-2-(4-fluorophenyl)-1H-indol-3-yl]cyclobutyl]methylsulfamoylamino]pyrrolidin-2-one]: the 50% inhibitory concentration (IC50) was over 1000 nM. Same read-out and setting: next, `O=S(=O)(NCCN1CCC(O)C1)NC[C@H]1C[C@H](c2c(-c3ccc(F)cc3)[nH]c3c(F)cc(F)cc32)C1` (stereo partly drawn) [Compound 333]: over 1000 nM; `Cc1[nH]cnc1CCNS(=O)(=O)NC[C@H]1C[C@H](c2c(-c3ccc(F)cc3)[nH]c3c(F)cc(F)cc32)C1` [Compound 334]: over 1000 nM. The same measure, in the same setting: then `O=C1CCCN1CCCNS(=O)(=O)NC[C@H]1C[C@H](c2c(-c3ccc(F)cc3)[nH]c3c(F)cc(F)cc32)C1` [Compound 335], with over 1000 nM; and `CN1CC(NS(=O)(=O)NC[C@H]2C[C@H](c3c(-c4ccc(F)cc4)[nH]c4c(F)cc(F)cc43)C2)CC1=O` (stereo partly drawn) [Compound 336], with over 1000 nM; and `CNC(=O)c1noc(CNS(=O)(=O)NC[C@H]2C[C@H](c3c(-c4ccc(F)cc4)[nH]c4c(F)cc(F)cc43)C2)n1` [Compound 337], with 250 to 1000 nM. Take `C[C@@H](CO)NS(=O)(=O)NC[C@H]1C[C@H](c2c(-c3ccc(F)cc3)[nH]c3c(F)cc(F)cc32)C1` [Compound 338]: the half-inhibitory concentration (IC50) fell in the range of 250 to 1000 nM. The same measure, in the same setting: then `O=S(=O)(NCCO)NC[C@H]1C[C@H](c2c(-c3ccc(F)cc3)[nH]c3c(F)cc(F)cc32)C1` [Compound 339], with under 250 nM. Same read-out and setting: next, `O=C1CCC(CNS(=O)(=O)NC[C@H]2C[C@H](c3c(-c4ccc(F)cc4)[nH]c4c(F)cc(F)cc43)C2)N1` (stereo partly drawn) [Compound 340]: over 1000 nM. Regarding `NC(=O)CNS(=O)(=O)NC[C@H]1C[C@H](c2c(-c3ccc(F)cc3)[nH]c3c(F)cc(F)cc32)C1` [Compound 341], the IC50 fell in the range of 250 to 1000 nM. The same measure, in the same setting: then `O=S(=O)(NC[C@H]1C[C@H](c2c(-c3ccc(F)cc3)[nH]c3c(F)cc(F)cc32)C1)NC1(CO)CC1` [Compound 343], with 250 to 1000 nM. `O=S(=O)(NC[C@H]1C[C@H](c2c(-c3ccc(F)cc3)[nH]c3c(F)cc(F)cc32)C1)N[C@H]1C[C@H](O)C1` [Compound 344]: the IC50 was over 1000 nM. On to `O=C1NCCC1CNS(=O)(=O)NC[C@H]1C[C@H](c2c(-c3ccc(F)cc3)[nH]c3c(F)cc(F)cc32)C1` (stereo partly drawn) [Compound 345], for which the IC50 was over 1000 nM. As to `O=S(=O)(NC[C@H]1C[C@H](c2c(-c3ccc(F)cc3)[nH]c3c(F)cc(F)cc32)C1)NC(CO)CF` (stereo partly drawn) [Compound 346], the IC50 was in the range of 250 to 1000 nM. Take `O=S(=O)(NC[C@H]1C[C@H](c2c(-c3ccc(F)cc3)[nH]c3c(F)cc(F)cc32)C1)N[C@@H](CO)C(F)F` [Compound 347]: the IC50 was over 1000 nM.

The same assay, now with this note: Thallium Assay (IC50), HEK 293 T-Rex inducible stable clone expressing G1 APOL1.
`CC(C)(C)OC(=O)N1CC[C@@H]1C(=O)NC[C@H]1C[C@H](c2c(-c3ccc(F)cc3)[nH]c3c(F)cc(F)cc32)C1` [Compound 310] had an IC50 of over 1000 nM.
